Reference: patent US11535621B2, “Heterobicyclic amides as inhibitors of CD38” (Ribon Therapeutics, Inc., priority 2019, dated 2022)

target: Human CD38 (Homo sapiens (Human), UniProt P28907); experiment: CD38 enzyme assay; assay type: biochemical; settings: 2 nM CD38, NAD+ substrate, absorbance at 405 nm
Method in brief: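 IC50 values come from fitting % inhibition against compound concentration with a 4-parameter logistic, or a 3-parameter fit with top/bottom fixed at 100/0 or Hill at 1. Inhibition is scaled between DMSO wells and positive-control wells treated with a quinolinone CD38 inhibitor.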

Sequence of Human CD38 (P28907 whole entry): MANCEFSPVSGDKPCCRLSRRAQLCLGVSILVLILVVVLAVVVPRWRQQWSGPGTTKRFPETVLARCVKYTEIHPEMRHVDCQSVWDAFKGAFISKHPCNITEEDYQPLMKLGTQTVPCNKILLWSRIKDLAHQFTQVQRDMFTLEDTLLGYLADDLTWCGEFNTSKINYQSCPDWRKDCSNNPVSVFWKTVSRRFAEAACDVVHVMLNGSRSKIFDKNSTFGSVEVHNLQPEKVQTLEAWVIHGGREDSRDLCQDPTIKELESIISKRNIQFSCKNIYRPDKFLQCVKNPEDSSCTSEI

| IC50 [nM] | SMILES |
| --- | --- |
| < 10 | N#Cc1ccc(O[C@H]2CC[C@H](NC(=O)c3nc(-n4ccnc4)nc4cc[nH]c34)CC2)cc1 [Example 212, N-((1r,4r)-4-(4-cyanophenoxy)cyclohexyl)-2-(1H-imidazol-1-yl)-5H-pyrrolo[3,2-d]pyrimidine-4-carboxamide] |
| 10 to 100 | CS(=O)(=O)[C@H]1CC[C@H](NC(=O)c2nc(-n3ccnc3)nc3cc[nH]c23)CC1 [Example 213, 2-(1H-imidazol-1-yl)-N-((1r,4r)-4-(methylsulfonyl)cyclohexyl)-5H-pyrrolo[3,2-d]pyrimidine-4-carboxamide] |
| < 10 | N#CCO[C@H]1CC[C@H](NC(=O)c2nc(-n3ccnc3)nc3cn[nH]c23)CC1 [Example 214, N-((1r,4r)-4-(cyanomethoxy)cyclohexyl)-5-(1H-imidazol-1-yl)-1H-pyrazolo[4,3-d]pyrimidine-7-carboxamide] |
| < 10 | N#CCO[C@H]1CC[C@H](NC(=O)c2nc(-n3ccnc3)cc3cn[nH]c23)CC1 [Example 215, N-((1r,4r)-4-(cyanomethoxy)cyclohexyl)-5-(1H-imidazol-1-yl)-1H-pyrazolo[3,4-c]pyridine-7-carboxamide] |

The next lines start with the compound.

| SMILES | IC50 [nM] |
| --- | --- |
| O=C(N[C@H]1CC[C@H](CCO)CC1)c1nc(-n2ccnc2)nc2cc[nH]c12 [Example 200, N-((1r,4r)-4-(2-hydroxyethyl)cyclohexyl)-2-(1H-imidazol-1-yl)-5H-pyrrolo[3,2-d]pyrimidine-4-carboxamide] | < 10 |
| CN(C)C(=O)CO[C@H]1CC[C@H](NC(=O)c2nc(-n3ccnc3)nc3cn[nH]c23)CC1 [Example 201, N-((1r,4r)-4-(2-(dimethylamino)-2-oxoethoxy)cyclohexyl)-5-(1H-imidazol-1-yl)-1H-pyrazolo[4,3-d]pyrimidine-7-carboxamide] | 10 to 100 |
| CN(C)C(=O)CO[C@H]1CC[C@H](NC(=O)c2nc(-n3ccnc3)cc3cn[nH]c23)CC1 [Example 202, N-((1r,4r)-4-(2-(dimethylamino)-2-oxoethoxy)cyclohexyl)-5-(1H-imidazol-1-yl)-1H-pyrazolo[3,4-c]pyridine-7-carboxamide] | 10 to 100 |
| O=C(Nc1ccc(OCCN2CCCC2)nc1)c1nc(-n2ccnc2)cc2cn[nH]c12 [Example 203, 5-(1H-imidazol-1-yl)-N-(6-(2-(pyrrolidin-1-yl)ethoxy)pyridin-3-yl)-1H-pyrazolo[3,4-c]pyridine-7-carboxamide] | 10 to 100 |
| O=C(N[C@H]1CC[C@H](N2CC(F)(F)C2)CC1)c1nc(-n2ccnc2)nc2cc[nH]c12 [Example 204, N-((1r,4r)-4-(3,3-difluoroazetidin-1-yl)cyclohexyl)-2-(1H-imidazol-1-yl)-5H-pyrrolo[3,2-d]pyrimidine-4-carboxamide] | 10 to 100 |
| N#Cc1ccc(NC(=O)c2nc(-n3ccnc3)cc3cn[nH]c23)cc1 [Example 205, N-(4-cyanophenyl)-5-(1H-imidazol-1-yl)-1H-pyrazolo[3,4-c]pyridine-7-carboxamide] | < 10 |
| O=C(N[C@H]1CC[C@H](NCC(F)F)CC1)c1nc(-n2ccnc2)nc2cn[nH]c12 [Example 206, N-((1r,4r)-4-(2,2-difluoroethylamino)cyclohexyl)-5-(1H-imidazol-1-yl)-1H-pyrazolo[4,3-d]pyrimidine-7-carboxamide] | 10 to 100 |
| CC(=O)NC[C@H]1CC[C@H](NC(=O)c2nc(-n3ccnc3)cc3cn[nH]c23)CC1 [Example 209, N-((1r,4r)-4-(acetamidomethyl)cyclohexyl)-5-(1H-imidazol-1-yl)-1H-pyrazolo[3,4-c]pyridine-7-carboxamide] | 10 to 100 |
| CC(C)(O)[C@H]1CC[C@H](NC(=O)c2nc(-n3ccnc3)nc3ccsc23)CC1 [Example 210, N-((1r,4r)-4-(2-hydroxypropan-2-yl)cyclohexyl)-2-(1H-imidazol-1-yl)thieno[3,2-d]pyrimidine-4-carboxamide] | < 10 |
| O=C(Nc1ccc2c(c1)CNC2)c1nc(-n2ccnc2)nc2cc[nH]c12 [Example 211, 2-(1H-imidazol-1-yl)-N-(isoindolin-5-yl)-5H-pyrrolo[3,2-d]pyrimidine-4-carboxamide] | < 10 |
